Test results published in patent US20200239530A1, “COMPOUNDS AND METHODS OF MODULATING PROTEIN DEGRADATION” (Vividion Therapeutics, Inc., priority 2017, published 2020).

How the values were obtained:
Experiment in all cases: Cysteine liganding, probe competition
Assay type in all cases: binding
[1] = target: T1, BIRC2 Baculoviral IAP repeat-containing protein 2 (Homo sapiens, UniProt Q13490); conditions: for Liganded: BIRC2 Res# 45, uniprot Q13490
T1 construct: Cells were resuspended in cold PBS on ice and sonicated with a probe sonicator to achieve lysis; endogenous in cells
Summary of the method: (§1)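 Read-out is loss of desthiobiotin iodoacetamide labelling at cysteines, measured on streptavidin-enriched tryptic peptides. Compound preincubation ran 1 hr at 25° C in PBS lysate holding 5 mg/ml proteome before the probe was added.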

[2] = target: T2, BIRC3 Baculoviral IAP repeat-containing protein 3 (Homo sapiens, UniProt Q13489)
T2 construct: Cells were resuspended in cold PBS on ice and sonicated with a probe sonicator to achieve lysis; endogenous in cells
Summary of the method: as §1

[3] = target: T3, SNX8 Sorting nexin-8 (Homo sapiens, UniProt Q9Y5X2)
T3 construct: Cells were resuspended in cold PBS on ice and sonicated with a probe sonicator to achieve lysis; endogenous in cells
T3 sequence (Q9Y5X2 1-465): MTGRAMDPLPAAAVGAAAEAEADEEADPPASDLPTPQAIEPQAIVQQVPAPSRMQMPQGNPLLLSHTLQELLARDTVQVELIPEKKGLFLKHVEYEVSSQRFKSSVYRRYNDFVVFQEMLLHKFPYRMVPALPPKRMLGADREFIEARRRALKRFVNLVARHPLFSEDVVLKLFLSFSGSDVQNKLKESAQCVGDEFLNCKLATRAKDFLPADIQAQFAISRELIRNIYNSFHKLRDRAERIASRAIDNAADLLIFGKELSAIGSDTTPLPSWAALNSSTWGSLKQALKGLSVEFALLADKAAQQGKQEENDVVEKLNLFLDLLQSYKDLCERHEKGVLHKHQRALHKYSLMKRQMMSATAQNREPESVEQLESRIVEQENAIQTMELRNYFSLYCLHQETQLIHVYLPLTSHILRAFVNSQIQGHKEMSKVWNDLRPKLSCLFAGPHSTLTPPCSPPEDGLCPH
Summary of the method: as §1

[4] = target: T4, TNFAIP3 Tumor necrosis factor alpha-induced protein 3 (Homo sapiens, UniProt P21580)
T4 construct: Cells were resuspended in cold PBS on ice and sonicated with a probe sonicator to achieve lysis; endogenous in cells
T4 sequence (P21580 1-790): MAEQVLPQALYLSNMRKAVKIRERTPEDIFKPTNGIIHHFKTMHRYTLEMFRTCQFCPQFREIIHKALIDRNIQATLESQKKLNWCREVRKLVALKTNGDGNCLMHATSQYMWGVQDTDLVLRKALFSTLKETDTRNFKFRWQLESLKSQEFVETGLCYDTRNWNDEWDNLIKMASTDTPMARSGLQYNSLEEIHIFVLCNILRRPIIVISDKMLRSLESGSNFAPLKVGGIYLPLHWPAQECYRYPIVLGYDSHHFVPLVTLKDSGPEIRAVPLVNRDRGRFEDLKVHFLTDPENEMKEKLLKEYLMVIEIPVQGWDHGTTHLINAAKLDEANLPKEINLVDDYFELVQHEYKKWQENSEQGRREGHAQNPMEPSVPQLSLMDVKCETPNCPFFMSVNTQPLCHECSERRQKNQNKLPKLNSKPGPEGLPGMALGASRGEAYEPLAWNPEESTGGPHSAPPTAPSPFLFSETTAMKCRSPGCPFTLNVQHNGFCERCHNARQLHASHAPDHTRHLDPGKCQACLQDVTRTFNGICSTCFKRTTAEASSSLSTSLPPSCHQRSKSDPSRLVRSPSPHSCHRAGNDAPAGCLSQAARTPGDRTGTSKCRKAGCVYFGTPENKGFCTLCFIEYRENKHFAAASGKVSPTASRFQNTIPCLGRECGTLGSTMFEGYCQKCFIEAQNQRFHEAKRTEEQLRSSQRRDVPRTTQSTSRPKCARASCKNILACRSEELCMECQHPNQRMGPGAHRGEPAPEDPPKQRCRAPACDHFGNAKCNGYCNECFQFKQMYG
Summary of the method: as §1

[5] = TNFAIP3 Res# 54, uniprot P21580

T2 sequence (Q13489 whole entry): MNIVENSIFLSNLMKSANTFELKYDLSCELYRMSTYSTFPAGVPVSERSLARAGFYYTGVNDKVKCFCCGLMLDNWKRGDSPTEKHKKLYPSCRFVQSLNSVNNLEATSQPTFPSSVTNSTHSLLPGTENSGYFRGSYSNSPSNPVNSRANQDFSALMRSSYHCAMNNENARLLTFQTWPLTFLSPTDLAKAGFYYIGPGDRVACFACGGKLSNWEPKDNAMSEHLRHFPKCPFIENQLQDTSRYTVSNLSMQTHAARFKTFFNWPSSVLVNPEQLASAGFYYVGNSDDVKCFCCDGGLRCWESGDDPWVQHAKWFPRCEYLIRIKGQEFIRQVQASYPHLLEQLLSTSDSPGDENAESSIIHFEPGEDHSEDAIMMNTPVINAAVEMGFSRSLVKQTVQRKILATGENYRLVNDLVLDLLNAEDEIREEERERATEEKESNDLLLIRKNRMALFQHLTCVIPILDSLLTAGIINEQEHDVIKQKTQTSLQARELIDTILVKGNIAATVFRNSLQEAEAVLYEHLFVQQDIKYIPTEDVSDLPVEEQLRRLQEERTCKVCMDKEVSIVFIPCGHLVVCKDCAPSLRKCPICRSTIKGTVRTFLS
T1 sequence (Q13490 whole entry): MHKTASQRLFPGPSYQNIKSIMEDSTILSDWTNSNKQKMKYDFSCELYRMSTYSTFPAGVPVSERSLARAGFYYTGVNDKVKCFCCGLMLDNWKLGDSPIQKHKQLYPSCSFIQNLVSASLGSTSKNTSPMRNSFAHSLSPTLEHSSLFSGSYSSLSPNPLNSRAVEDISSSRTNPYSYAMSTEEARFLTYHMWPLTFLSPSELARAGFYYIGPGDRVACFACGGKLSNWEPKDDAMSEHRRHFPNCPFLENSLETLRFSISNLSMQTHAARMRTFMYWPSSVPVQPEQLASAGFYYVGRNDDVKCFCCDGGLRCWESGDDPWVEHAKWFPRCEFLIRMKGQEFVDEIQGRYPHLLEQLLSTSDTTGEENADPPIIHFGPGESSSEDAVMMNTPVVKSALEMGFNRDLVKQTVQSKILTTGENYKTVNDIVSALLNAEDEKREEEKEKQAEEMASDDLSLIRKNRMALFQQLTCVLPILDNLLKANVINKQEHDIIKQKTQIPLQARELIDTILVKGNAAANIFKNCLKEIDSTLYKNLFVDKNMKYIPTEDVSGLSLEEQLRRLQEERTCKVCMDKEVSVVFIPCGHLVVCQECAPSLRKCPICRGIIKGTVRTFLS

| SMILES | Liganded [1] | Liganded ([2]; BIRC3 Res# 28, uniprot Q13489) | Liganded ([3]; SNX8 Res# 200, uniprot Q9Y5X2) | Liganded [4, 5] | Liganded ([4]; TNFAIP3 Res# 536, uniprot P21580) | Liganded ([4]; TNFAIP3 Res# 579, uniprot P21580) | 100 Max ([1]; uniprot Q13490) | 100 ave ([1]; uniprot Q13490) | 500 Max ([1]; uniprot Q13490) | 500 ave ([1]; uniprot Q13490) | 100 Max ([2]; uniprot Q13489) | 100 ave ([2]; uniprot Q13489) | 500 Max ([2]; uniprot Q13489) | 500 ave ([2]; uniprot Q13489) | 100 Max ([3]; uniprot Q9Y5X2) | 100 ave ([3]; uniprot Q9Y5X2) |
| --- | --- | --- | --- | --- | --- | --- | --- | --- | --- | --- | --- | --- | --- | --- | --- | --- |
| COc1ccc2c(c1)CCCN2C(=O)CCl [KB02] | YES | YES | YES | YES | YES | YES |  |  |  |  |  |  |  |  |  |  |
| O=C(CCl)Nc1cc(C(F)(F)F)cc(C(F)(F)F)c1 [KBO3] | YES |  |  | YES |  |  | 47.9 | 41.4 | 92.0 | 85.9 | 1.3 | −2.6 | 18.7 | 18.7 | 36.21 | 36.21 |
